Source: ChEMBL document CHEMBL5518181, “Studies of antibacterial activity (in vitro and in vivo) and mode of action for des-acyl tridecaptins (DATs)” (Eur J Med Chem, 2024)
Values after ≈ are worked out from the molar mass of the structure shown.

Assays:
[1] = Cytotoxicity against human HepG2 cells incubated for 40 hrs by celltiter-glo luminescent cell viability assay; assay type: toxicity, cell-based
[2] = Hemolytic activity in human red blood cells at 400 ug/ml incubated for 45 mins by spectrophotometric analysis relative to control; assay type: toxicity, cell-based, Erythrocyte; conditions: red blood cells (erythrocytes), at 400 µg/mL, read-out: Activity
Klebsiella pneumoniae = test: Antibacterial activity against wild-type Klebsiella pneumoniae ATCC 13883 assessed as inhibition of bacterial growth incubated for 18 hrs; assay type: functional; conditions: read-out: MIC100
Escherichia coli = test: Antibacterial activity against wild-type Escherichia coli ATCC 25922 assessed as inhibition of bacterial growth incubated for 18 hrs; assay type: functional; conditions: read-out: MIC100

Compound	IC50 at 40 h [1] [µg/mL]	hemolysis at 0.75 h, 400 ug/ml [2] [%]	MIC (Klebsiella pneumoniae) [µg/mL]	MIC (Escherichia coli) [µg/mL]
CC[C@H](C)[C@@H](NC(=O)[C@H](CC1CCCCC1)NC(=O)[C@H](CCC(=O)O)NC(=O)[C@H](Cc1ccccc1)NC(=O)[C@@H](CCN)NC(=O)[C@H](CCN)NC(=O)[C@H](CO)NC(=O)[C@@H](Cc1c[nH]c2ccccc12)NC(=O)[C@@H](CO)NC(=O)CNC(=O)[C@@H](CCN)NC(=O)[C@H](NC(=O)[C@H](C)N)C(C)C)C(=O)N[C@@H](C)C(=O)O [listing 1 of 2 here]	9 (≈ 5.92 µM)	59	–	–
CC[C@H](C)[C@@H](NC(=O)[C@@H](NC(=O)[C@H](CCC(=O)O)NC(=O)[C@H](Cc1ccccc1)NC(=O)[C@@H](CCN)NC(=O)[C@H](CCN)NC(=O)[C@H](CO)NC(=O)[C@@H](Cc1c[nH]c2ccccc12)NC(=O)[C@@H](CO)NC(=O)CNC(=O)[C@@H](CCN)NC(=O)[C@H](N)CCN)C(C)C)C(=O)N[C@@H](C)C(=O)O	> 170	0	> 64	> 64
CC[C@H](C)[C@@H](NC(=O)[C@@H](NC(=O)[C@H](CO)NC(=O)[C@H](Cc1ccccc1)NC(=O)[C@@H](CCN)NC(=O)[C@H](CCN)NC(=O)[C@H](CO)NC(=O)[C@@H](Cc1c[nH]c2ccccc12)NC(=O)[C@@H](CO)NC(=O)CNC(=O)[C@@H](CCN)NC(=O)[C@H](N)C(C)C)C(C)C)C(=O)N[C@@H](C)C(=O)O [listing 1 of 2 here]	–	–	> 64	> 64
CC[C@H](C)[C@H](NC(=O)[C@H](CCC(=O)O)NC(=O)[C@H](Cc1ccccc1)NC(=O)[C@@H](CCN)NC(=O)[C@H](CCN)NC(=O)[C@H](CO)NC(=O)[C@@H](Cc1c[nH]c2ccccc12)NC(=O)[C@@H](CO)NC(=O)CNC(=O)[C@@H](CCN)NC(=O)[C@H](N)C(C)C)C(=O)N[C@@H](C(=O)N[C@@H](C)C(=O)O)[C@@H](C)CC	> 60	70.6	16 (≈ 11.4 µM)	32 (≈ 22.7 µM)
CC[C@H](C)[C@@H](NC(=O)[C@H](CC1CCCCC1)NC(=O)[C@H](CCC(=O)O)NC(=O)[C@H](Cc1ccccc1)NC(=O)[C@@H](CCN)NC(=O)[C@H](CCN)NC(=O)[C@H](CO)NC(=O)[C@@H](Cc1c[nH]c2ccccc12)NC(=O)[C@@H](CO)NC(=O)CNC(=O)[C@@H](CCN)NC(=O)[C@H](NC(=O)[C@H](C)N)C(C)C)C(=O)N[C@@H](C)C(=O)O [listing 2 of 2 here]	–	–	2 (≈ 1.32 µM)	2 (≈ 1.32 µM)
CC[C@H](C)[C@@H](NC(=O)[C@@H](NC(=O)[C@H](CCC(=O)O)NC(=O)[C@H](Cc1ccccc1)NC(=O)[C@@H](CCN)NC(=O)[C@H](CCN)NC(=O)[C@H](CO)NC(=O)[C@@H](Cc1c[nH]c2ccccc12)NC(=O)[C@@H](CO)NC(=O)[C@H](CCCCN)NC(=O)[C@@H](CCN)NC(=O)[C@H](NC(=O)[C@H](C)N)C(C)C)C(C)C)C(=O)N[C@@H](C)C(=O)O	> 170	0.5	32 (≈ 20.8 µM)	16 (≈ 10.4 µM)
CC[C@H](C)[C@@H](NC(=O)[C@@H](NC(=O)[C@H](CCC(=O)O)NC(=O)[C@H](Cc1ccccc1)NC(=O)[C@@H](CCN)NC(=O)[C@H](CCN)NC(=O)[C@H](CO)NC(=O)[C@@H](Cc1c[nH]c2ccccc12)NC(=O)[C@@H](CO)NC(=O)CNC(=O)[C@@H](C)NC(=O)[C@H](N)C(C)C)C(C)C)C(=O)N[C@@H](C)C(=O)O	> 170	0.1	> 64	> 64
CC[C@H](C)[C@@H](NC(=O)[C@@H](NC(=O)[C@H](CCC(=O)O)NC(=O)[C@H](Cc1ccccc1)NC(=O)[C@@H](CCN)NC(=O)[C@H](CCN)NC(=O)[C@H](CO)NC(=O)[C@@H](Cc1c[nH]c2ccccc12)NC(=O)[C@@H](CO)NC(=O)CNC(=O)[C@@H](CCN)NC(=O)[C@@H](C)NC(=O)[C@H](C)N)C(C)C)C(=O)N[C@@H](C)C(=O)O	> 170	1.3	32 (≈ 22.3 µM)	64 (≈ 44.5 µM)
CC[C@H](C)[C@@H](NC(=O)[C@@H](NC(=O)[C@H](CCC(=O)O)NC(=O)[C@H](Cc1ccccc1)NC(=O)[C@@H](CCN)NC(=O)[C@H](CCN)NC(=O)[C@H](CO)NC(=O)[C@@H](Cc1c[nH]c2ccccc12)NC(=O)[C@@H](CO)NC(=O)[C@H](C)NC(=O)[C@@H](CCN)NC(=O)[C@H](NC(=O)[C@H](C)N)C(C)C)C(C)C)C(=O)N[C@@H](C)C(=O)O	74 (≈ 50 µM)	31.9	32 (≈ 21.6 µM)	16 (≈ 10.8 µM)
CC[C@H](C)[C@@H](NC(=O)[C@@H](NC(=O)[C@H](CCC(=O)O)NC(=O)[C@H](Cc1ccccc1)NC(=O)[C@@H](CN)NC(=O)[C@H](CCN)NC(=O)[C@H](CO)NC(=O)[C@@H](Cc1c[nH]c2ccccc12)NC(=O)[C@@H](CO)NC(=O)CNC(=O)[C@@H](CCN)NC(=O)[C@H](NC(=O)[C@H](C)N)C(C)C)C(C)C)C(=O)N[C@@H](C)C(=O)O	> 170	0	> 64	> 64
CC[C@H](C)[C@@H](NC(=O)[C@@H](NC(=O)[C@H](CCC(=O)O)NC(=O)[C@H](Cc1ccccc1)NC(=O)[C@@H](CCN)NC(=O)[C@H](CCN)NC(=O)[C@H](CO)NC(=O)[C@@H](Cc1c[nH]c2ccccc12)NC(=O)[C@@H](C)NC(=O)CNC(=O)[C@@H](CCN)NC(=O)[C@H](N)C(C)C)C(C)C)C(=O)N[C@@H](C)C(=O)O	> 170	0	64 (≈ 46.4 µM)	> 64
CC[C@H](C)[C@@H](NC(=O)[C@@H](NC(=O)[C@H](CC(=O)O)NC(=O)[C@H](Cc1ccccc1)NC(=O)[C@@H](CCN)NC(=O)[C@H](CCN)NC(=O)[C@H](CO)NC(=O)[C@@H](Cc1c[nH]c2ccccc12)NC(=O)[C@@H](CO)NC(=O)CNC(=O)[C@@H](CCN)NC(=O)[C@H](N)C(C)C)C(C)C)C(=O)N[C@@H](C)C(=O)O	> 170	0	64 (≈ 46.4 µM)	64 (≈ 46.4 µM)
CC[C@H](C)[C@@H](NC(=O)[C@@H](NC(=O)[C@H](CCC(=O)O)NC(=O)[C@H](C)NC(=O)[C@@H](CCN)NC(=O)[C@H](CCN)NC(=O)[C@H](CO)NC(=O)[C@@H](Cc1c[nH]c2ccccc12)NC(=O)[C@@H](CO)NC(=O)CNC(=O)[C@@H](CCN)NC(=O)[C@H](NC(=O)[C@H](C)N)C(C)C)C(C)C)C(=O)N[C@@H](C)C(=O)O	> 170	0	> 64	> 64
CC[C@H](C)[C@@H](NC(=O)[C@@H](NC(=O)[C@H](CCC(=O)O)NC(=O)[C@H](Cc1ccccc1)NC(=O)[C@@H](CCN)NC(=O)[C@H](CCN)NC(=O)[C@H](CO)NC(=O)[C@@H](Cc1c[nH]c2ccccc12)NC(=O)[C@@H](CO)NC(=O)CNC(=O)[C@@H](CCN)NC(=O)[C@H](NC(=O)[C@H](C)N)C(C)C)C(C)(C)C)C(=O)N[C@@H](C)C(=O)O	12 (≈ 8.11 µM)	82.7	2 (≈ 1.35 µM)	2 (≈ 1.35 µM)
CC[C@H](C)[C@@H](NC(=O)[C@@H](NC(=O)[C@H](CCC(=O)O)NC(=O)[C@H](C)NC(=O)[C@@H](CCN)NC(=O)[C@H](CCN)NC(=O)[C@H](CO)NC(=O)[C@@H](Cc1c[nH]c2ccccc12)NC(=O)[C@@H](CO)NC(=O)CNC(=O)[C@@H](CCN)NC(=O)[C@H](N)C(C)C)C(C)C)C(=O)N[C@@H](C)C(=O)O	> 170	2.5	64 (≈ 48.5 µM)	64 (≈ 48.5 µM)
CC[C@H](C)[C@@H](NC(=O)[C@@H](NC(=O)[C@H](CCC(=O)O)NC(=O)[C@H](CC1CCCCC1)NC(=O)[C@@H](CCN)NC(=O)[C@H](CCN)NC(=O)[C@H](CO)NC(=O)[C@@H](Cc1c[nH]c2ccccc12)NC(=O)[C@@H](CO)NC(=O)CNC(=O)[C@@H](CCN)NC(=O)[C@H](NC(=O)[C@H](C)N)C(C)C)C(C)C)C(=O)N[C@@H](C)C(=O)O [listing 1 of 2 here]	–	–	2 (≈ 1.36 µM)	4 (≈ 2.72 µM)
CC(C)[C@H](NC(=O)[C@H](CCC(=O)O)NC(=O)[C@H](Cc1ccccc1)NC(=O)[C@@H](CCN)NC(=O)[C@H](CCN)NC(=O)[C@H](CO)NC(=O)[C@@H](Cc1c[nH]c2ccccc12)NC(=O)[C@@H](CO)NC(=O)CNC(=O)[C@@H](CCN)NC(=O)[C@H](N)C(C)C)C(=O)N[C@@H](C(=O)N[C@@H](C)C(=O)O)C(C)(C)C	–	14.4	8 (≈ 5.74 µM)	32 (≈ 22.9 µM)
CC[C@H](C)[C@@H](NC(=O)[C@@H](NC(=O)[C@H](CCC(=O)O)NC(=O)[C@H](CC1CCCCC1)NC(=O)[C@@H](CCN)NC(=O)[C@H](CCN)NC(=O)[C@H](CO)NC(=O)[C@@H](Cc1c[nH]c2ccccc12)NC(=O)[C@@H](CO)NC(=O)CNC(=O)[C@@H](CCN)NC(=O)[C@H](NC(=O)[C@H](C)N)C(C)C)C(C)C)C(=O)N[C@@H](C)C(=O)O [listing 2 of 2 here]	37 (≈ 25.1 µM)	–	–	–
CC[C@H](C)[C@@H](NC(=O)[C@@H](NC(=O)[C@H](CO)NC(=O)[C@H](Cc1ccccc1)NC(=O)[C@@H](CCN)NC(=O)[C@H](CCN)NC(=O)[C@H](CO)NC(=O)[C@@H](Cc1c[nH]c2ccccc12)NC(=O)[C@@H](CO)NC(=O)CNC(=O)[C@@H](CCN)NC(=O)[C@H](N)C(C)C)C(C)C)C(=O)N[C@@H](C)C(=O)O [listing 2 of 2 here]	> 170	0.4	–	–
